Legend:
[1] = molecular target: T1, LCK (Homo sapiens, UniProt P06239); assay: Kinase inhibition profiling LCK (ELISA); format: biochemical
T1 construct: made in house; host or cells: baculovirus expression system
Procedure: (§1) In particular, the target kinases were Tyrosine kinases and Serine/Threonine kinases.
(§2) Each test compound was weighed and dissolved in DMSO to make 1 mM stock solution. The stock solution was diluted with DMSO to achieve 20 μM. The compound solution was diluted with the assay buffer to achieve 0.8 μM.

[2] = molecular target: T2, TrkB (Homo sapiens, UniProt Q16620); assay: Kinase inhibition profiling TrkB (ELISA); format: biochemical
T2 construct: Cytoplasmic domain of human TRKB [456-822 amino; made in house; host or cells: baculovirus expression system
Procedure: as §1, §2

[3] = molecular target: T3, PKACα (Homo sapiens, UniProt P17612); assay: Kinase inhibition profiling PKACα (IMAP); format: biochemical
T3 construct: made in house; host or cells: baculovirus expression system
Procedure: as §1, §2

[4] = molecular target: T4, FAK (Homo sapiens, UniProt Q05397); assay: Kinase inhibition profiling FAK (ELISA); format: biochemical
T4 construct: made in house; host or cells: baculovirus expression system
Procedure: as §2

[5] = molecular target: T5, FGFR1 (Homo sapiens, UniProt P11362); assay: Kinase inhibition profiling FGFR1 (ELISA); format: biochemical
T5 construct: Cytoplasmic domain of human FGFR1 [396-820 amino; made in house; host or cells: baculovirus expression system
Procedure: as §2

[6] = molecular target: T6, FLT3 (Homo sapiens, UniProt P36888); assay: Kinase inhibition profiling FLT3 (ELISA); format: biochemical
T6 construct: made in house; host or cells: baculovirus expression system
Procedure: as §2

[7] = molecular target: T7, AXL (Homo sapiens, UniProt P30530); assay: Kinase inhibition profiling AXL (ELISA); format: biochemical
T7 construct: made in house; host or cells: baculovirus expression system
Procedure: as §1, §2

[8] = molecular target: T8, ARG (Homo sapiens, UniProt P42684); assay: Kinase inhibition profiling ARG (ELISA); format: biochemical; also: ATP 5 µM
T8 construct: made in house; host or cells: baculovirus expression system
Procedure: as §2

[9] = molecular target: T9, JAK1 (Homo sapiens, UniProt P23458); assay: Kinase inhibition profiling JAK1 (ELISA); format: biochemical
T9 construct: Kinase domain (KD) of human JAK1 [838-1142 amino; made in house; host or cells: baculovirus expression system
Procedure: as §2

[10] = molecular target: T10, FGFR2 (Homo sapiens, UniProt P21802); assay: Kinase inhibition profiling FGFR2 (ELISA); format: biochemical; also: ATP 20 µM
T10 construct: Cytoplasmic domain of human FGFR2 [399-821 amino; made in house; host or cells: baculovirus expression system
Procedure: as §2

[11] = molecular target: T11, PKCγ (Homo sapiens, UniProt P05129); assay: Kinase inhibition profiling PKCγ (IMAP); format: biochemical
T11 construct: made in house; host or cells: baculovirus expression system
Procedure: as §2

[12] = molecular target: T12, CaMK4 (Homo sapiens, UniProt Q16566); assay: Kinase inhibition profiling CaMK4 (IMAP); format: biochemical
T12 construct: His (N); made in house; host or cells: baculovirus expression system
Procedure: as §1, §2

[13] = system: bovine aorta smooth muscle cells (BASMC); assay: Chemotaxis assay, fMLP-induced migration (modified Boyden chambers); format: cell-based; settings: K-252a 3, 10, 30, 100 nM; fMLP 0.1 μM; overnight migration
Procedure: Chemotaxis assays were performed using a well known and validated protocol (1). Modified Boyden chambers were used with filters having 5-8 μm pore size and treated with collagen I (100 μg/ml in 0.5 M acetic acid) and fibronectin (10 μg/ml, Roche). BASMC (bovine aorta smooth muscle cells) were cultured in serum-free DMEM and a sample of 20,000-40,000 cells was added to the upper well of a Boyden chamber. […] Overnight cell migration was allowed at 37+/−0.5° C., then cells were scraped off and filters were fixed in methanol and stained in a solution of 10% crystal violet in 20% methanol. All experiments were performed at least twice in triplicate. […] Random cell migration, i.e. migration in the absence of chemoattractant, was given the arbitrary value of 100%. Statistical analysis was performed using Student's t test for pairwise comparisons of treatment, or an ANOVA model for the evaluation of treatments with increasing concentrations of a reagent.

[14] = molecular target: T13, IKKβ (Homo sapiens, UniProt O14920); assay: Kinase inhibition profiling IKKβ (IMAP); format: biochemical
T13 construct: Human IKKβ with 662 amino acids were expressed; His (N); made in house; host or cells: insect cells
Procedure: as §2

[15] = molecular target: T14, MET (Homo sapiens, UniProt P08581); assay: Kinase inhibition profiling MET (ELISA); format: biochemical; also: ATP 20 µM
T14 construct: made in house; host or cells: baculovirus expression system
Procedure: as §2

[16] = molecular target: T15, PDGFRα (Homo sapiens, UniProt P16234); assay: Kinase inhibition profiling PDGFRα (ELISA); format: biochemical
T15 construct: Cytoplasmic domain of human PDGFRα [550-1089; made in house; host or cells: baculovirus expression system
Procedure: as §2

[17] = molecular target: T16, TNK1 (Homo sapiens, UniProt Q13470); assay: Kinase inhibition profiling TNK1 (ELISA); format: biochemical
T16 construct: Kinase domain (KD) of human TNK [110-394 amino; made in house; host or cells: baculovirus expression system
Procedure: as §1, §2

[18] = molecular target: T17, CHK2 (Homo sapiens, UniProt O96017); assay: Kinase inhibition profiling CHK2 (IMAP); format: biochemical
T17 construct: His (N); made in house; host or cells: baculovirus expression system
Procedure: as §2

[19] = molecular target: T18, HMGB1 (Homo sapiens, UniProt P09429); assay: Fluorescence assays of K-252a/HMGB1 interaction; format: binding
T18 construct: host or cells: bacteria (inferred from the mention of bacterial contaminants)

[20] = system: p38β; assay: Kinase inhibition profiling p38β (IMAP); format: biochemical, human; settings: K-252a 200 nM, ATP 10 μM
Procedure: as §2

[21] = molecular target: TrkC (Homo sapiens, UniProt Q16288); assay: Kinase inhibition profiling TrkC (ELISA)
Procedure: as §1, §2

[22] = molecular target: T19, JAK2 (Homo sapiens, UniProt O60674); assay: Kinase inhibition profiling JAK2 (ELISA); format: biochemical
T19 construct: Kinase domain (KD) of human JAK2 [826-1132 amino; made in house; host or cells: baculovirus expression system
Procedure: as §2

[23] = molecular target: T20, EphB2 (Homo sapiens, UniProt P29323); assay: Kinase inhibition profiling EphB2 (ELISA); format: biochemical
T20 construct: Cytoplasmic domain of human EphB2 [581-987 amino; made in house; host or cells: baculovirus expression system
Procedure: as §2

[24] = molecular target: T21, JAK3 (Homo sapiens, UniProt P52333); assay: Kinase inhibition profiling JAK3 (ELISA); format: biochemical; also: ATP 5 µM
T21 construct: Kinase domain (KD) of human JAK3 [795-1124 amino; made in house; host or cells: baculovirus expression system
Procedure: as §2

[25] = molecular target: T22, CHK1 (Homo sapiens, UniProt O14757); assay: Kinase inhibition profiling CHK1 (IMAP); format: biochemical
T22 construct: His (N); made in house; host or cells: baculovirus expression system
Procedure: as §2

[26] = molecular target: T23, EGFR (Homo sapiens, UniProt P00533); assay: Kinase inhibition profiling EGFR (ELISA); format: biochemical; also: ATP 5 µM
T23 construct: Cytoplasmic domain of human EGFR [669-1210 amino; made in house; host or cells: baculovirus expression system
Procedure: as §2

[27] = molecular target: T24, PDGFRβ (Homo sapiens, UniProt P09619); assay: Kinase inhibition profiling PDGFRβ (ELISA); format: biochemical
T24 construct: Cytoplasmic domain of human PDGFRβ [557-1106 amino; made in house; host or cells: baculovirus expression system
T24 sequence (P09619 557-1106): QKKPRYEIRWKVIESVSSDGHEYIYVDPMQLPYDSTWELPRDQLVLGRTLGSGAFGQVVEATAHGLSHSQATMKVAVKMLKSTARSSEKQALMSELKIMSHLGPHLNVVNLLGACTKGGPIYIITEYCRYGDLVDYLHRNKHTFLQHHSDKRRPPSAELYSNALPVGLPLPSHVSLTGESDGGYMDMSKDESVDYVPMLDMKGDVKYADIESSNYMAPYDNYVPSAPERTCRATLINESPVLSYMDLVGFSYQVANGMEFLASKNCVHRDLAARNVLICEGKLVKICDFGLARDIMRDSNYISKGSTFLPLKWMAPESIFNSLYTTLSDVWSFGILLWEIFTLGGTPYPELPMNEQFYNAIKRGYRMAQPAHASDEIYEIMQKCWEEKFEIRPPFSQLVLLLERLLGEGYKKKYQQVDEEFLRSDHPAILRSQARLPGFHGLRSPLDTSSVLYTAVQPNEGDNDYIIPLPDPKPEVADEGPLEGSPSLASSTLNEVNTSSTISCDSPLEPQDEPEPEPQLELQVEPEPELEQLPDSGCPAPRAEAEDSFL
Procedure: as §2

T2 sequence (Q16620 456-822): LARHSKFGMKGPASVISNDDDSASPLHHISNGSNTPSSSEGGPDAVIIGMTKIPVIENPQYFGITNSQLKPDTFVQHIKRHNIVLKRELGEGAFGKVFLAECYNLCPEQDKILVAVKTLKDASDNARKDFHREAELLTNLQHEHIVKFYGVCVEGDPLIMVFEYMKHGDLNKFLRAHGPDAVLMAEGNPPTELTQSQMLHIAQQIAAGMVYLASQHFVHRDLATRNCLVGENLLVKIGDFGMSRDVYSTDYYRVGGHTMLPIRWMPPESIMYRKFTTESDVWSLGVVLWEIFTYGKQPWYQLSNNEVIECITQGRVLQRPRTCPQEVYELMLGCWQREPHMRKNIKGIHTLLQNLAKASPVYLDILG
T17 sequence (O96017 whole entry): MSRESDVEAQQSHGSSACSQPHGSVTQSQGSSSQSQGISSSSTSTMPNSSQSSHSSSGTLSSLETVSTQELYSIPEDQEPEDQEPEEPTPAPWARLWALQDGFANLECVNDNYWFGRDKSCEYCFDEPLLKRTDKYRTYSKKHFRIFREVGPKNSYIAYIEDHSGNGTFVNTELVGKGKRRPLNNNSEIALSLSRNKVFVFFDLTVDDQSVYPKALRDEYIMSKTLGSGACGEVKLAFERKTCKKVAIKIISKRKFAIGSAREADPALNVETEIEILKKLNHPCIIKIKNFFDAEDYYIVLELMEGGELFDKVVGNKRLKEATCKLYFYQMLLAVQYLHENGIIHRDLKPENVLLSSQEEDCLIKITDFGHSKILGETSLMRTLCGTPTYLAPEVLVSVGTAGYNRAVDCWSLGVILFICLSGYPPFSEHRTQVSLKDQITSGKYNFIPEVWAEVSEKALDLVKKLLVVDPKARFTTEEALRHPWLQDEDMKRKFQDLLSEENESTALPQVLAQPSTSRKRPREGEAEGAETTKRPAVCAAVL
T16 sequence (Q13470 110-394): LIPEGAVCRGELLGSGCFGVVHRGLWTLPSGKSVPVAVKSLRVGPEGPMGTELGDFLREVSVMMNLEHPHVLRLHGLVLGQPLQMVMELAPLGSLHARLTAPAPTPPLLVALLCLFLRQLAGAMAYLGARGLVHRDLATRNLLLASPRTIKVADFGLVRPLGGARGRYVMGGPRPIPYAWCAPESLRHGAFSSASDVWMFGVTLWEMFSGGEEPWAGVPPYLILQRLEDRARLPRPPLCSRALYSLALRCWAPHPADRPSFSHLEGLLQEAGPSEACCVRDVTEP
T5 sequence (P11362 398-822): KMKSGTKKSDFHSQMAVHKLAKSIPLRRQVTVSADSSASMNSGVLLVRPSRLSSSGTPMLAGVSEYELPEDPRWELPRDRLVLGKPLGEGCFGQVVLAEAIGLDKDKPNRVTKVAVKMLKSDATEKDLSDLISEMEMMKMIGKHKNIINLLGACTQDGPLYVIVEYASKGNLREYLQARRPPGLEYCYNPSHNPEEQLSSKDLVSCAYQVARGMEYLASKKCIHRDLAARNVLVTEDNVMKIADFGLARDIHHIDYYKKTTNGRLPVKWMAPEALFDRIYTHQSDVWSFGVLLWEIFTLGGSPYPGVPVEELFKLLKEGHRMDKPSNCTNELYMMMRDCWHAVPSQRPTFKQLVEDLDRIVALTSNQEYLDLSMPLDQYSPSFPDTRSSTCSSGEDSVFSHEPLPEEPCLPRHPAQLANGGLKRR
T18 sequence (P09429 whole entry, species assumed): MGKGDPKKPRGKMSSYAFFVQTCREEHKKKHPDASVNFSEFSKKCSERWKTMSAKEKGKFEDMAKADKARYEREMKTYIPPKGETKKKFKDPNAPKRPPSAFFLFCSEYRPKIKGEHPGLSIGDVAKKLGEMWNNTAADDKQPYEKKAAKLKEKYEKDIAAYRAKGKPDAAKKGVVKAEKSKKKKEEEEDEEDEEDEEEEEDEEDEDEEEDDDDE
Sequence of TrkC (Q16288 456-839): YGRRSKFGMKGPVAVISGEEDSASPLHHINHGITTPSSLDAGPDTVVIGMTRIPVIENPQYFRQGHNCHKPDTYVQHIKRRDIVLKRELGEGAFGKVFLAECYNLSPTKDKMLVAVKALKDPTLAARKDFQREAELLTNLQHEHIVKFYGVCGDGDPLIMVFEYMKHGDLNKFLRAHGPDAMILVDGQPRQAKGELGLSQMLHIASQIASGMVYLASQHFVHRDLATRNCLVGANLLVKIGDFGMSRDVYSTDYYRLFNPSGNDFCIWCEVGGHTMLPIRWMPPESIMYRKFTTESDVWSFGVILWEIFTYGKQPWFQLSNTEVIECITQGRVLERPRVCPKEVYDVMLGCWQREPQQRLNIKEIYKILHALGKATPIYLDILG
T20 sequence (P29323 581-987 isoform P29323-3): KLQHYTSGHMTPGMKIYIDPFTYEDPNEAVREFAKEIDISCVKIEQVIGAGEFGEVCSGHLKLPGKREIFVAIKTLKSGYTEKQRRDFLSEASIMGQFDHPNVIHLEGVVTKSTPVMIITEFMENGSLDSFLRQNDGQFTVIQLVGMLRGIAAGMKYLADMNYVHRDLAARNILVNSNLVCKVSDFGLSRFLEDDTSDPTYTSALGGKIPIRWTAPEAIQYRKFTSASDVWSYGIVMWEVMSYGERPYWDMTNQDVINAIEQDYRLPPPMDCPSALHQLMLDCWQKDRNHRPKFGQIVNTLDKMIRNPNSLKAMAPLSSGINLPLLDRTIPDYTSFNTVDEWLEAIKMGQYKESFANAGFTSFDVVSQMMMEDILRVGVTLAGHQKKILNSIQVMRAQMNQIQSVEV
T15 sequence (P16234 550-1089): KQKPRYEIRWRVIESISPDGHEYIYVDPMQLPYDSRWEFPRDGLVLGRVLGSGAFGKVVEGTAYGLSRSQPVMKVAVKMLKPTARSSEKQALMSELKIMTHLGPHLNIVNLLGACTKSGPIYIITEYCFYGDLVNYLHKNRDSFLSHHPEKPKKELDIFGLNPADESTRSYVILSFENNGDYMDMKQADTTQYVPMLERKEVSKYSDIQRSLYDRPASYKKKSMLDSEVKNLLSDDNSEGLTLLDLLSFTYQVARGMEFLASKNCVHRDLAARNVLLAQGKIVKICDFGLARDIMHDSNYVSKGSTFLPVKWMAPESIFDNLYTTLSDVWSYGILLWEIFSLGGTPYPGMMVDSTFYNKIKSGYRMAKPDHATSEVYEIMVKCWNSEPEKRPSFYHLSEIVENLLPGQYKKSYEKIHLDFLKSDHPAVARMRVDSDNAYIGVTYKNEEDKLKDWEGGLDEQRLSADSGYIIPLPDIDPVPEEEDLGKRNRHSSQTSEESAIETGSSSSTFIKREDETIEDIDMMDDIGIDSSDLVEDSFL
T4 sequence (Q05397 whole entry): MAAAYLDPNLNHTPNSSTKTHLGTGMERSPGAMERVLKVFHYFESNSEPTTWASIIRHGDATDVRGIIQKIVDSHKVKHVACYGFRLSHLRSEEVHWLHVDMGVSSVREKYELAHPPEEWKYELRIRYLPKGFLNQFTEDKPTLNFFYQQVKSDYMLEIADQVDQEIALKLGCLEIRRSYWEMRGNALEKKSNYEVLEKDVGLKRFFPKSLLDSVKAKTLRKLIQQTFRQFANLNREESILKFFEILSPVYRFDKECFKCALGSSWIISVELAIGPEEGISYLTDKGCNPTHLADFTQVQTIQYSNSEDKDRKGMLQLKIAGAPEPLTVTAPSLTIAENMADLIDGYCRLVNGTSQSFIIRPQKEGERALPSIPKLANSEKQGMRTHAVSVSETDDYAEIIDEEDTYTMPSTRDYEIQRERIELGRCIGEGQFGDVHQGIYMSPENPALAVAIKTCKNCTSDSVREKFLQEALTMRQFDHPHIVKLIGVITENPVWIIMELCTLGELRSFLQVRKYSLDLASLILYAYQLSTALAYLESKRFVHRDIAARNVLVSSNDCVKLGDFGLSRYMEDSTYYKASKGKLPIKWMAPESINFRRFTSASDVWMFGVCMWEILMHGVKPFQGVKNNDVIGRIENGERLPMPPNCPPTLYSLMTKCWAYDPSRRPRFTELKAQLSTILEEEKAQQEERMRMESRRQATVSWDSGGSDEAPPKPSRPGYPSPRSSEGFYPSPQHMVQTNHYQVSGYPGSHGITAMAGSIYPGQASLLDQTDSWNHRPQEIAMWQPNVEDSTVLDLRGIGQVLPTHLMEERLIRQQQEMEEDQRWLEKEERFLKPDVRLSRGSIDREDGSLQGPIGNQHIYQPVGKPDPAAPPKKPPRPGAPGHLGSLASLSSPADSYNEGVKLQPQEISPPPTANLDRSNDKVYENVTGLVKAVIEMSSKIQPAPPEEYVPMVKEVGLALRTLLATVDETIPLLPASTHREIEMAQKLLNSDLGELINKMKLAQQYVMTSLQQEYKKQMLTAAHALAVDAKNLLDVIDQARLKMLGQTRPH

COC(=O)[C@]1(O)CC2O[C@@]1(C)n1c3ccccc3c3c4c(c5c6ccccc6n2c5c31)C(=O)NC4 [K-252a]
inhibition at 0.2 µM [1]: 65.2% | inhibition at 0.2 µM [2]: 98.2% | inhibition at 0.2 µM [3]: 69.4% | inhibition at 0.2 µM [4]: 53.5% | inhibition at 0.2 µM [5]: 57.9% | inhibition at 0.2 µM [6]: 95.8% | inhibition at 0.2 µM [7]: 51.5% | inhibition at 0.2 µM [8]: 0.1% | inhibition at 0.2 µM [9]: 83.1% | inhibition at 0.2 µM [10]: 67.2% | inhibition at 0.2 µM [11]: 53.3% | inhibition at 0.2 µM [12]: 0% | cell migration induced by fMLP [13]: does not interfere with cell migration induced by fMLP, whatever the concentration tested | inhibition at 0.2 µM [14]: 2.7% | inhibition at 0.2 µM [15]: 83.2% | inhibition at 0.2 µM [16]: 96.1% | inhibition at 0.2 µM [17]: 94.8% | inhibition at 0.2 µM [18]: 93.9% | direct interaction between K-252a and HMGB1 [19]: absence of a direct interaction | % Inhibition [20]: −0.2% | inhibition at 0.2 µM [21]: 94.4% | inhibition at 0.2 µM [22]: 99.5% | inhibition at 0.2 µM [23]: 0.4% | inhibition at 0.2 µM [24]: 100% | inhibition at 0.2 µM [25]: 92.8% | inhibition at 0.2 µM [26]: 16.4% | inhibition at 0.2 µM [27]: 98.1%
